# Results from article PMC9304322, “Targeting retinoic acid receptor alpha-corepressor interaction activates chaperone-mediated autophagy and protects against retinal degeneration” (Nature Communications, 2022).
# Several values for one entry are separate records, joined by “and”; a condition that tells them apart may be missing. Equal entries are not always repeated. Where no end group is shown, it is not given here. The star is where a group is joined. FITC = O=C1OC2(c3ccc(O)cc3Oc3cc(O)ccc32)c2ccc(NC(=S)*)cc21; Ahx = NCCCCCC(=O)O
# B1: fluorescein-tagged peptide of N-CoR1, FITC-Ahx-RLITLADHICQIITQDFAR (peptide)
# peptide: {FITC-Ahx}-RLITLADHICQIITQDFAR
# notes: peptide of nuclear receptor corepressor 1 (N-CoR1); also called FITC-N-CoR1; N-CoR1 peptide; source: synthetic peptide; bought: Genscript, purity > 95%
# Tests used:
# [1] = tested on: NIH3T3 cells stably expressing the mCherry-GFP-LC3 reporter; assay: Macroautophagy activity, mCherry-GFP-LC3 reporter; type: cell-based, mouse
# Method: Cells were transduced with a lentiviral vector expressing mCherry-GFP-LC3[35], fixed and flux determined as the conversion of dual fluorescence puncta (autophagosomes) into only red fluorescent puncta (autolysosomes). Flux was also measured by immunoblot for LC3 in cells incubated for 6 h with 20 mM NH4Cl/100 μM leupeptin, by discounting the intensity of LC3 in non-treated cells from that in cells treated with the inhibitors.
# N-CoR1 and RARα = target: T1, N-CoR1 and RARα (Mus musculus, UniProt P11416); assay: Streptavidin pulldown of biotin-CA, immunoblot for N-CoR1 and RARα; type: cell-based; conditions: NIH3T3, 10 μM for 24 h
# T1 construct: endogenous in cells; host or cells: NIH3T3
# NIH3T3 cells = assay: Microarray transcriptional changes; type: cell-based, mouse; conditions: NIH3T3; 20μM for 24 h
# Method: Total RNA of the treated cells was extracted using TRIzol (Invitrogen) and purified with RNeasy chromatography (Qiagen). Cy3-labeled RNA (0.6 μg) from each condition was hybridized to Agilent Mouse 8x60K. Data were processed using the oligo package and normalized using Robust Multiarray Average (RMA) method. […] Pathway analysis was performed using the STRING database ([…]).
# rd10 mice = assay: rd10 mice, single intravitreal injection, retina histology; type: in vivo, mouse; conditions: rd10 mice; individual values and Mean CA77
# Method: C57BL/6 J mice wild-type (WT) and homozygous for the Pde6 mutation (rd10 mouse model of retinal degeneration) were obtained from The Jackson Laboratory and experiments were performed at the age indicated in each part of the study. C57BL/6 KFERQ-Dendra mice were generated by back-crossing FVB KFERQ-Dendra mice with wild-type C57BL/6 mice for 8 generations. Both male and female animals were used in this study in equally distribution groups. However, results from both sexes were pooled, because of absence of significant differences in any of the parameters analyzed after statistical analysis with a mixed model of two-way ANOVA sex and treatment as independent variables and the corresponding measure as dependent variable. All animals were housed in a barrier-controlled facility (19–23 °C 30–60% relative humidity; 12 h light/dark cycle) with ad libitum access to standard chow pellets (protein 19 gm%/carbohydrate 67 gm%/fat 4 gm%) and water. For animal administration of CA compounds, a formula containing 30% PEG 400 (Sigma, #8.0745), 65% of 5% glucose solution, 5% Tween 80 (Sigma, #P1754) was used to dissolve them. CA compounds were prepared freshly by adding 5% DMSO and sonicating for 1 h. Treatment of KFERQ-Dendra mice with the CA compounds was done at 4 months of age by i.p. daily injection of 30 mg/kg bw or vehicle for three consecutive days and tissues collected 6 h after the last injection. In the case of rd10 mice, animals were daily injected from P18 to P25 with CA77 (40 mg/kg bw). In the case of intravitreal administration, a single intravitreal injection was applied at P18 with CA77 (40 µM) in DMSO/PBS and the contralateral eye was injected with PBS and DMSO at same concentration. At P26, mice were sacrificed and eyes fixed overnight with 4% PFA (Sigma, #P6148) in PBS at 4 °C for immunofluorescence or retinas dissected and immediately frozen for biochemistry. Distribution of animals in the vehicle or treatment group was done randomly. ICR (CD-1) outbred 3 months old male mice from ENVIGO were used for the pharmacokinetic studies (see pharmacokinetic section for housing and handling details). All animal studies and procedures complied with ethical regulations, were performed in accordance with the European Union guidelines and the ARVO Statement for the Use of Animals in Ophthalmic and Vision Research and were approved by the Institutional Animal Care and Use Committee at the Albert Einstein College of Medicine, the CSIC Bioetica Comite and approved by the Comunidad de Madrid, PROEX232/17.
# 12 μm cryosections and immunofluorescence in retinal sections[10] after orienting retinas with a dorsal mark, so comparisons were performed taking into account the precise retinal area. Primary antibodies used in this study were visual (rod) arrestin, cone arrestin, Opsin R/G, transducin, GFAP, N-CoR1. Sections were visualized by confocal microscopy (TCS SP5; Leica Microsystems).
# For ONL thickness quantification, DAPI images were taken at 40X in a fluorescence microscope Multidimensional system Leica AF6000 LX coupled to DMI600B microscope and Hamamatsu CCD 9100-O2 camera. At least two sections per animal were analyzed, preferably central sections. Eight images per retina equally distributed along the retina were acquired. Three measures were taken per image and ratio ONL/INL quantified with ImageJ tools. Leica LAS-X (3.7.4.23463) was used for image acquisition and ImageJ (v.2.1.0) was used for image processing. For OS length measures, fixed positions common to all pictures were considered and OS length was measured using ImageJ straight line tool.
# Eyes were enucleated, put in a plate with cold PBS and an incision was made under the microscope to let the fixative enter into the eye. […]
# [2] = target: T2, ligand binding domain (LBD) of the human RARα (residues 176-421) (human, UniProt P10276 176-421); assay: fluorescence polarisation; FITC-N-CoR1 (5 nM) with serial two-fold dilutions of RARα LBD from 10 uM, without or with small molecules (10 uM: BMS, CA39, CA77); 20 mM Tris-HCl pH 7.5, 150 mM NaCl, 1 mM EDTA, 5 mM DTT, 10% glycerol; read at 30 min; conditions: both partners purified
# T2 construct: also called RARα LBD; retinoic acid receptor alpha; source: E. coli BL21(DE3) RIL, purified (Ni-NTA, ULP1 cleavage, subtractive Ni-NTA, Superdex 200); not shown: His6-SUMO, N-terminal, cleaved
# T2 sequence (looked up): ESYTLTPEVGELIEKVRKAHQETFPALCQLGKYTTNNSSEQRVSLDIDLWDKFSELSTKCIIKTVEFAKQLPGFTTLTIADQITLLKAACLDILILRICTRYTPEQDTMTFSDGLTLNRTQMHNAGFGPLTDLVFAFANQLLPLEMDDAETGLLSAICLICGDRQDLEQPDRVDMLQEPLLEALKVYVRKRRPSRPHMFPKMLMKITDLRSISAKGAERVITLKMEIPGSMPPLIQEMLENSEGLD
# [3] = c0 = 2 (axis unlabelled; ANOVA calls row factor Time)
# T1 sequence (P11416 whole entry): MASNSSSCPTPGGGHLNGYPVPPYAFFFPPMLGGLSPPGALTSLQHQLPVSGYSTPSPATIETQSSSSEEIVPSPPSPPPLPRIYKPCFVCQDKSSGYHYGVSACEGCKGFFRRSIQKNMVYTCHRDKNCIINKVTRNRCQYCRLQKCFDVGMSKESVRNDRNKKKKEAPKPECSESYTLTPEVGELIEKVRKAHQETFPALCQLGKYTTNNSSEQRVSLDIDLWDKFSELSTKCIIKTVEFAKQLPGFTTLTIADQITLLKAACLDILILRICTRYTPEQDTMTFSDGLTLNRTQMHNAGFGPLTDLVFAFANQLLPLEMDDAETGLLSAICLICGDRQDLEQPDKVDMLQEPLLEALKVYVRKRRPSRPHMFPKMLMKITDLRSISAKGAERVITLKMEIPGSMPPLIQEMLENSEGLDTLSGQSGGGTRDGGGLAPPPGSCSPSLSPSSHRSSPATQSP
# T1 sequence (Q60974 whole entry partner): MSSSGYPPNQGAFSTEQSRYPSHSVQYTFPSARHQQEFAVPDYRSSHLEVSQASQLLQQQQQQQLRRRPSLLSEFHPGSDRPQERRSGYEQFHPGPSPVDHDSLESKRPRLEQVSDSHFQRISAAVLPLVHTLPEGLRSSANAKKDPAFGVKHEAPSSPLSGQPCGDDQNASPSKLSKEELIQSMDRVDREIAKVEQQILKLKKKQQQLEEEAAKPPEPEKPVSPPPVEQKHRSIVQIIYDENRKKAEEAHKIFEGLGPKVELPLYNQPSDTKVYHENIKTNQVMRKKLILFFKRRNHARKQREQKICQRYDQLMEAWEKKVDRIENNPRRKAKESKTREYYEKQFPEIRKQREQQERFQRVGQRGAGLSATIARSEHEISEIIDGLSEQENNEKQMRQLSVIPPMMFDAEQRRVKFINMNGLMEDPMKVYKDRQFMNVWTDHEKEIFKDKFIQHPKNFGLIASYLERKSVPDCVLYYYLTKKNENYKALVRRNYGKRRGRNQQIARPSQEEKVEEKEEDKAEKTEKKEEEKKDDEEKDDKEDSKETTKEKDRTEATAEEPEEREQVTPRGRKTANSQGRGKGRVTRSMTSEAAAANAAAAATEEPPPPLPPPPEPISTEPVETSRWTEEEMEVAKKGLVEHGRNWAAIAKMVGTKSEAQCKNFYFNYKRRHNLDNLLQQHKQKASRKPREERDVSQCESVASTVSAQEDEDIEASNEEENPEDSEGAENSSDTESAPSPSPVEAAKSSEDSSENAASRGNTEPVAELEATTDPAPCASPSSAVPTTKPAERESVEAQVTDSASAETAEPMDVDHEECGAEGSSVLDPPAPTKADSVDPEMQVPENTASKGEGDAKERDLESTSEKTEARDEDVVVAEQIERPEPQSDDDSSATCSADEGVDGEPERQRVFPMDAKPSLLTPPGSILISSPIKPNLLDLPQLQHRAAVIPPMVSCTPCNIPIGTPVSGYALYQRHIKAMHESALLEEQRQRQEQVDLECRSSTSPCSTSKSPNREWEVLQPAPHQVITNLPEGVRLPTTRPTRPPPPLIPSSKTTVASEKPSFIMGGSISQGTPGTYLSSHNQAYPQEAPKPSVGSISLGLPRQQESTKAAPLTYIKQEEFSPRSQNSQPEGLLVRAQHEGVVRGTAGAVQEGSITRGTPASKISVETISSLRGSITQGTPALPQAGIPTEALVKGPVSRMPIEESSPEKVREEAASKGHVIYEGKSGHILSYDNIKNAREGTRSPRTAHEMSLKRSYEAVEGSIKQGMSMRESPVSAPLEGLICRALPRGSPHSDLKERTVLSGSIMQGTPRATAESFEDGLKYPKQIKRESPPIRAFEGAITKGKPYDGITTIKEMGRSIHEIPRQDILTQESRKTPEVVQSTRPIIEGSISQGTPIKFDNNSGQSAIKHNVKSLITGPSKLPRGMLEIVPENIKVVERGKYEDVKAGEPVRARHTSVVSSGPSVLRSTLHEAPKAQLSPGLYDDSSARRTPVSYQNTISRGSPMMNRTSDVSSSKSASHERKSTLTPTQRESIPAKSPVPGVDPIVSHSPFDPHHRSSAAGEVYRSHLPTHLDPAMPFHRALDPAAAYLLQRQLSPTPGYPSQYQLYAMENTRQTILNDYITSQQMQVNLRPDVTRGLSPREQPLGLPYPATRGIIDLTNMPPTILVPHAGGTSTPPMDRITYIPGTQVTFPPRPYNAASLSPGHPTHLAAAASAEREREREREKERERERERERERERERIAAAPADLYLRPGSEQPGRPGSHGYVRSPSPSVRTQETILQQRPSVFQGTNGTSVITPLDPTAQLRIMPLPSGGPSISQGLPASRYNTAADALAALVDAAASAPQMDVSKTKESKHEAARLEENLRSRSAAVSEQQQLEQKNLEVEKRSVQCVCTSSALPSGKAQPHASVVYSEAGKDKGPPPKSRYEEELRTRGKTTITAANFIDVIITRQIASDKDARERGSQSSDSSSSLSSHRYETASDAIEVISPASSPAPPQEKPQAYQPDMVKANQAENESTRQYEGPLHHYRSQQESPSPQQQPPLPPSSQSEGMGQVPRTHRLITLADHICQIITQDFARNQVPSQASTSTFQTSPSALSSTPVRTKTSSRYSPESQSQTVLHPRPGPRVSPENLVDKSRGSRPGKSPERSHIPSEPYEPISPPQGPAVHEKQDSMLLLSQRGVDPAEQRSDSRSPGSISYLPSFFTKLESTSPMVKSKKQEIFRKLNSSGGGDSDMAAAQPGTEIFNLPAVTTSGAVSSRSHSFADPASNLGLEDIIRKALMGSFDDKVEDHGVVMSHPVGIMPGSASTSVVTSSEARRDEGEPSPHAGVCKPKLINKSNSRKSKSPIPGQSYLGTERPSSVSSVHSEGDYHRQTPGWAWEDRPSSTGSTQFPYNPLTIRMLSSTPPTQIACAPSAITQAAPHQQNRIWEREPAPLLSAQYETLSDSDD
molecule,measurement,setting,value
"CO[C@H]1C[C@@H]2CC[C@@H](C)[C@@](O)(O2)C(=O)C(=O)N2CCCC[C@H]2C(=O)O[C@H]([C@H](C)C[C@@H]2CC[C@@H](O)[C@H](OC)C2)CC(=O)[C@H](C)/C=C(\C)[C@@H](O)[C@@H](OC)C(=O)[C@H](C)C[C@H](C)/C=C/C=C/C=C/1C [rapamycin, reference compound]",APG (Fig. S3e),[1]; [3],1.605
same,AUT (Fig. S3e),[1]; [3],1.965
same,AV (Fig. S3e),[1]; [3],3.57
same,APG (Fig. S3e),[1]; c0 = 5 (axis unlabelled),2.415
same,AUT (Fig. S3e),[1]; c0 = 5 (axis unlabelled),2.129
same,AV (Fig. S3e),[1]; c0 = 5 (axis unlabelled),4.544
same,APG (Fig. S3e),[1]; c0 = 10 (axis unlabelled),3.3128
same,AUT (Fig. S3e),[1]; c0 = 10 (axis unlabelled),3.752
same,AV (Fig. S3e),[1]; c0 = 10 (axis unlabelled),7.064
same,APG (Fig. S3e),[1]; c0 = 20 (axis unlabelled),5.184
same,AUT (Fig. S3e),[1]; c0 = 20 (axis unlabelled),4.731
same,AV (Fig. S3e),[1]; c0 = 20 (axis unlabelled),9.915
same,APG (Fig. S3e),[1]; c0 = 30 (axis unlabelled),4.9183
same,AUT (Fig. S3e),[1]; c0 = 30 (axis unlabelled),11.4046
same,AV (Fig. S3e),[1]; c0 = 30 (axis unlabelled),16.3229
O=C(CCCCC1SCC2NC(=O)NC21)NCCCOCCOCCOCCCNC(=O)c1ccc(C2=Nc3ccc(Cl)cc3OC2)cc1 (stereo not shown) [biotinylated CA compound],co-immunoprecipitation of cellular RARα and N-CoR1,N-CoR1 and RARα,could be co-immunoprecipitated
"CC1(C)CC=C(c2cnc3ccccc3c2)c2cc(C(=O)Nc3ccc(C(=O)O)cc3)ccc21 [BMS614, reference compound]",changes in the transcriptome,NIH3T3 cells,marked changes in the transcriptome
CC(=O)Nc1ccc(C2=Nc3ccc(Cl)cc3OC2)cc1 [CA 77],"Fig. 7a, retinal measurement by eccentricity, eccentricity 1",rd10 mice,0.2752 and 0.2828 and 0.2675 and 0.4954 and 0.393 and 0.3603 and 0.3938
same,"Fig. 7a, retinal measurement by eccentricity, eccentricity 2",rd10 mice,0.3254 and 0.2696 and 0.3495 and 0.2864 and 0.4558 and 0.3792 and 0.723
same,"Fig. 7a, retinal measurement by eccentricity, eccentricity 3",rd10 mice,0.3333 and 0.3595 and 0.4443 and 0.4969 and 0.8558 and 0.7642 and 0.8417
same,"Fig. 7a, retinal measurement by eccentricity, eccentricity 4",rd10 mice,0.6989 and 0.5535 and 0.938 and 1.0799 and 0.9103 and 0.9911 and 0.7623
same,"Fig. 7a, retinal measurement by eccentricity, eccentricity -1",rd10 mice,0.7616 and 0.2157 and 0.1911 and 0.3575 and 0.223 and 0.305
same,"Fig. 7a, retinal measurement by eccentricity, eccentricity -2",rd10 mice,0.2825 and 0.2446 and 0.25 and 0.4552 and 0.7496 and 0.1825 and 0.2782
same,"Fig. 7a, retinal measurement by eccentricity, eccentricity -3",rd10 mice,0.4178 and 0.4298 and 0.7568 and 0.9291 and 0.9244 and 0.276 and 0.3979
B1,binding result,[2],binds
